# In patent US11000033B2, “Ketone or oxime compound, and herbicide” (NISSAN CHEMICAL CORPORATION, priority 2014, dated 2021):
# Experiments:
# Type in all cases: in vivo
# [1] = test system: soybean; assay: Test Example 5: effect on crop by foliage application, plastic box (symbol d); conditions: 320 g/ha, 3 weeks after application
# Method in brief: (§1)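 Plants were raised from seed in a greenhouse (25° C. to 30° C.) after sowing in a plastic box of sterilized diluvial soil.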
# [2] = test system: Galium spurium; assay: Test Example 5: herbicidal effect by foliage application, plastic box (symbol Q); conditions: 320 g/ha, 3 weeks after application
# Method in brief: (§2)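 Effect is rated 3 weeks after a foliar spray of water-diluted emulsion concentrate at a predetermined herbicide amount. Plants had grown 14 days in a 25° C. to 30° C. greenhouse from seed in sterilized diluvial soil.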
# [3] = test system: Digitaria ciliaris; assay: Test Example 5: herbicidal effect by foliage application, plastic box (symbol F); conditions: 320 g/ha, 3 weeks after application
# Method in brief: as §2
# [4] = test system: corn; assay: Test Example 4: effect on crop by soil treatment (symbol c); conditions: application herbicide amount 320 g/ha
# Method in brief: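 Grown at 25° C. to 30° C. in a greenhouse, the crops came from seed sown spot-wise in sterilized diluvial soil under roughly 1.5 cm of covering soil.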
# [5] = test system: Lolium multiflorum Lam.; assay: Test Example 5: herbicidal effect by foliage application, plastic box (symbol K); conditions: 320 g/ha, 3 weeks after application
# Method in brief: as §2
# [6] = test system: Scirpus juncoides; assay: Test Example 1: herbicidal activity, application before weed generation in submerged conditions (symbol B); conditions: application herbicide amount 320 g/ha
# Method in brief: (§3)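 Paddy pre-emergence test. Formulated emulsion, water-diluted to a predetermined rate, is applied to floodwater on sowing day; rice transplanted at 2.5 leaves. Effect read at 3 weeks on a 0–5 herbicidal-ratio scale.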
# [7] = test system: rice; assay: Test Example 4: effect on crop by soil treatment (symbol b); conditions: application herbicide amount 320 g/ha
# Method in brief: (§4)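 Seeds were sown in spots on sterilized diluvial soil in a plastic box and covered with about 1.5 cm of soil. Plants were then grown in a greenhouse at 25° C. to 30° C.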
# [8] = test system: corn; assay: Test Example 5: effect on crop by foliage application, plastic box (symbol c); conditions: 320 g/ha, 3 weeks after application
# Method in brief: as §1
# [9] = test system: Chenopodium album; assay: Test Example 5: herbicidal effect by foliage application, plastic box (symbol O); conditions: 320 g/ha, 3 weeks after application
# Method in brief: as §2
# [10] = test system: Monochoria vaginalis; assay: Test Example 1: herbicidal activity, application before weed generation in submerged conditions (symbol C); conditions: application herbicide amount 320 g/ha
# Method in brief: as §3
# [11] = test system: Veronica persica; assay: Test Example 5: herbicidal effect by foliage application, plastic box (symbol R); conditions: 320 g/ha, 3 weeks after application
# Method in brief: as §2
# [12] = test system: rapeseed; assay: Test Example 4: effect on crop by soil treatment (symbol g); conditions: application herbicide amount 320 g/ha
# Method in brief: as §4
# [13] = test system: Avena fatua; assay: Test Example 4: herbicidal effect by soil treatment (symbol I); conditions: application herbicide amount 320 g/ha
# Method in brief: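 Seeds were sown in sterilized diluvial soil, covered with about 1.5 cm of soil, and the soil surface was sprayed with a water-diluted emulsion of the compound at a predetermined rate. Plants grew in a greenhouse at 25° C. to 30° C.; effects were scored visually 3 weeks after application.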
# [14] = test system: Scirpus juncoides; assay: Test Example 2: herbicidal activity, application during weed generation in submerged conditions (symbol B); conditions: Table 23; application herbicide amount 320 g/ha; grade 0-5 by criteria of Test Example 1
# Method in brief: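 Treatment timing was the one- to two-leaf stage, with diluted emulsifiable compound dropped onto the paddy water (depth 4 cm) over alluvial soil. All three species grew from a mixed sowing in a 25° C. to 30° C. greenhouse. Injury was judged by eye 3 weeks on.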
Structure (SMILES),"d: soybean, effect on crop (criteria of Test Example 1) [1]","Q: Galium spurium, herbicidal effect (criteria of Test Example 1) [2]","F: Digitaria ciliaris, herbicidal effect (criteria of Test Example 1) [3]","Effect on crop grade, c: corn [4]","K: Lolium multiflorum Lam., herbicidal effect (criteria of Test Example 1) [5]","Herbicidal effect grade, B: Scirpus juncoides [6]","Effect on crop grade, b: directly sowed rice plant [7]","c: corn, effect on crop (criteria of Test Example 1) [8]","O: Chenopodium album, herbicidal effect (criteria of Test Example 1) [9]","Herbicidal effect grade, C: Monochoria vaginalis [10]","R: Veronica persica, herbicidal effect (criteria of Test Example 1) [11]","Effect on crop grade, g: rapeseed [12]","Herbicidal effect grade, I: Avena fatua [13]","Herbicidal effect grade, B: Scirpus juncoides [14]"
CON=C(C)CC1CC(O)=C(c2c(C)cc(-c3ccccc3)cc2OC)C1=O (stereo not shown) [6-099],4 (Herbicidal ratio of 70% or higher and lower than 90%),5 (Herbicidal ratio of 90% or more (almost completely withered)),5 (Herbicidal ratio of 90% or more (almost completely withered)),5 (Herbicidal ratio of 90% or more (almost completely withered)),5 (Herbicidal ratio of 90% or more (almost completely withered)),5 (Herbicidal ratio of 90% or more (almost completely withered)),5 (Herbicidal ratio of 90% or more (almost completely withered)),5 (Herbicidal ratio of 90% or more (almost completely withered)),5 (Herbicidal ratio of 90% or more (almost completely withered)),5 (Herbicidal ratio of 90% or more (almost completely withered)),5 (Herbicidal ratio of 90% or more (almost completely withered)),5 (Herbicidal ratio of 90% or more (almost completely withered)),5 (Herbicidal ratio of 90% or more (almost completely withered)),5 (Herbicidal ratio of 90% or more (almost completely withered))
CON=C(C)CC1CC(OC(=O)COc2ccccc2)=C(c2c(C)cc(-c3ccccc3)cc2OC)C1=O (stereo not shown) [6-100],3 (Herbicidal ratio of 40% or higher and lower than 70%),4 (Herbicidal ratio of 70% or higher and lower than 90%),5 (Herbicidal ratio of 90% or more (almost completely withered)),4 (Herbicidal ratio of 70% or higher and lower than 90%),5 (Herbicidal ratio of 90% or more (almost completely withered)),5 (Herbicidal ratio of 90% or more (almost completely withered)),5 (Herbicidal ratio of 90% or more (almost completely withered)),5 (Herbicidal ratio of 90% or more (almost completely withered)),4 (Herbicidal ratio of 70% or higher and lower than 90%),5 (Herbicidal ratio of 90% or more (almost completely withered)),3 (Herbicidal ratio of 40% or higher and lower than 70%),5 (Herbicidal ratio of 90% or more (almost completely withered)),5 (Herbicidal ratio of 90% or more (almost completely withered)),5 (Herbicidal ratio of 90% or more (almost completely withered))
CON=C(C)CC1CC(O)=C(c2c(OC)cc(C)cc2OC)C1=O (stereo not shown) [6-103],0 (Herbicidal ratio of 5% or lower (almost no effect)),0 (Herbicidal ratio of 5% or lower (almost no effect)),5 (Herbicidal ratio of 90% or more (almost completely withered)),5 (Herbicidal ratio of 90% or more (almost completely withered)),5 (Herbicidal ratio of 90% or more (almost completely withered)),0 (Herbicidal ratio of 5% or lower (almost no effect)),5 (Herbicidal ratio of 90% or more (almost completely withered)),5 (Herbicidal ratio of 90% or more (almost completely withered)),0 (Herbicidal ratio of 5% or lower (almost no effect)),0 (Herbicidal ratio of 5% or lower (almost no effect)),2 (Herbicidal ratio of 20% or higher and lower than 40%),0 (Herbicidal ratio of 5% or lower (almost no effect)),5 (Herbicidal ratio of 90% or more (almost completely withered)),0 (Herbicidal ratio of 5% or lower (almost no effect))
CON=C(C)CC1CC(O)=C(c2c(C)cc(-c3cc(F)c(F)c(F)c3)cc2C)C1=O (stereo not shown) [6-104],3 (Herbicidal ratio of 40% or higher and lower than 70%),4 (Herbicidal ratio of 70% or higher and lower than 90%),5 (Herbicidal ratio of 90% or more (almost completely withered)),5 (Herbicidal ratio of 90% or more (almost completely withered)),5 (Herbicidal ratio of 90% or more (almost completely withered)),5 (Herbicidal ratio of 90% or more (almost completely withered)),5 (Herbicidal ratio of 90% or more (almost completely withered)),5 (Herbicidal ratio of 90% or more (almost completely withered)),4 (Herbicidal ratio of 70% or higher and lower than 90%),5 (Herbicidal ratio of 90% or more (almost completely withered)),4 (Herbicidal ratio of 70% or higher and lower than 90%),4 (Herbicidal ratio of 70% or higher and lower than 90%),4 (Herbicidal ratio of 70% or higher and lower than 90%),5 (Herbicidal ratio of 90% or more (almost completely withered))
CON=C(C)CC1CC(O)=C(c2c(C)cc(-c3ccsc3)cc2C)C1=O (stereo not shown) [6-106],1 (Herbicidal ratio of 5% or higher and lower than 20%),3 (Herbicidal ratio of 40% or higher and lower than 70%),5 (Herbicidal ratio of 90% or more (almost completely withered)),0 (Herbicidal ratio of 5% or lower (almost no effect)),5 (Herbicidal ratio of 90% or more (almost completely withered)),5 (Herbicidal ratio of 90% or more (almost completely withered)),1 (Herbicidal ratio of 5% or higher and lower than 20%),5 (Herbicidal ratio of 90% or more (almost completely withered)),0 (Herbicidal ratio of 5% or lower (almost no effect)),4 (Herbicidal ratio of 70% or higher and lower than 90%),3 (Herbicidal ratio of 40% or higher and lower than 70%),3 (Herbicidal ratio of 40% or higher and lower than 70%),3 (Herbicidal ratio of 40% or higher and lower than 70%),5 (Herbicidal ratio of 90% or more (almost completely withered))
